A value given as a limit tells only on which side of the number the result lay.

In general, EC50 refers to the concentration that produces a half-maximal response.

The subject of test [1] is HCV genotype 1a (H77 strain) replicon in HUH-7 cells. The test can be described thus: HCV replicon luciferase reporter assay, genotype 1a. The test is classed as cell-based. The note with it: Hepatitis C virus, Huh-7, 72 h, HCV genotype 1a replicon luciferase assay, 3 days incubation, range class, read-out: LE_1a (EC50, range). In outline: (§1)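 Replicon inhibition for both genotypes was measured as Renilla luciferase signal (EnduRen, 7.5 μM final, 2 h) after 3-day, 37° C exposure of replicon-bearing HUH-7 cells in 4% FCS DMEM, 0.5% DMSO. The 1b construct carries S1179I; the 1a H77 construct carries P1496L and S2204I. Twenty-point, 3-fold dilutions were fitted four-parametrically for EC50, and CC50 was taken from multiplexed Cell Titer-Blue.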
On the technique in general: Replicon systems follow genome replication, usually without infectious particles.

The test system of test [2] is HCV genotype 1b (Con1) replicon in HUH-7 cells. Description: HCV replicon luciferase reporter assay, genotype 1b. The conditions noted are these: Hepatitis C virus, Huh-7, 72 h, HCV genotype 1b replicon luciferase assay, 3 days incubation, range class, read-out: LE_1b (EC50, range). The format is cell-based. The method, boiled down:
as §1

Take `COc1ccc2c(O[C@@H]3C[C@H]4C(=O)N[C@]5(C(=O)NS(=O)(=O)C6CC6)C[C@H]5/C=C\CC[C@@H](C)C[C@@H](C)[C@H](NC(=O)OC(C)(C)C)C(=O)N4C3)nc(N(C)C)cc2c1` [Compound 3121, tert-butyl ((2R,6S,7R,9R,13aS,14aR,16aS,Z)-14a-((cyclopropylsulfonyl)carbamoyl)-2-((3-(dimethylamino)-6-methoxyisoquinolin-1-yl)oxy)-7,9-dimethyl-5,16-dioxo-1,2,3,5,6,7,8,9,10,11,13a,14,14a,15,16,16a-hexadecahydrocyclopropa[e]pyrrolo[1,2-a][1,4]diazacyclopentadecin-6-yl)carbamate]: the EC50 was 4.82 to 103 nM in test [1] and below 5.46 nM in test [2].

As to `COc1ccc2c(O[C@@H]3C[C@H]4C(=O)N[C@]5(C(=O)NS(=O)(=O)C6(CF)CC6)C[C@H]5/C=C\CC[C@H](C)C[C@@H](C)[C@H](NC(=O)OC(C)(C)C)C(=O)N4C3)nc(N(C)C)cc2c1` [Compound 3122, tert-butyl ((2R,6S,7R,9S,13aS,14aR,16aS,Z)-2-((3-(dimethylamino)-6-methoxyisoquinolin-1-yl)oxy)-14a-(((1-(fluoromethyl)cyclopropyl)sulfonyl)carbamoyl)-7,9-dimethyl-5,16-dioxo-1,2,3,5,6,7,8,9,10,11,13a,14,14a,15,16,16a-hexadecahydrocyclopropa[e]pyrrolo[1,2-a][1,4]diazacyclopentadecin-6-yl)carbamate], the EC50 in test [1] and in test [2] was 4.82 to 103 nM each time.

With `COc1ccc2c(O[C@@H]3C[C@H]4C(=O)N[C@]5(C(=O)NS(=O)(=O)C6(CF)CC6)C[C@H]5/C=C\CC[C@@H](C)C[C@@H](C)[C@H](NC(=O)OC(C)(C)C)C(=O)N4C3)nc(N(C)C)cc2c1` [Compound 3123, tert-butyl ((2R,6S,7R,9R,13aS,14aR,16aS,Z)-2-((3-(dimethylamino)-6-methoxyisoquinolin-1-yl)oxy)-14a-(((1-(fluoromethyl)cyclopropyl)sulfonyl)carbamoyl)-7,9-dimethyl-5,16-dioxo-1,2,3,5,6,7,8,9,10,11,13a,14,14a,15,16,16a-hexadecahydrocyclopropa[e]pyrrolo[1,2-a][1,4]diazacyclopentadecin-6-yl)carbamate], the EC50 in test [1] and in test [2] was 4.82 to 103 nM throughout.

Turning to `COc1ccc2c(O[C@@H]3C[C@H]4C(=O)N[C@]5(C(=O)NS(=O)(=O)C6(CF)CC6)C[C@H]5/C=C\CC[C@H](C)C[C@@H](C)[C@H](NC(=O)OC(C)(C)C(C)(F)F)C(=O)N4C3)nc(N(C)C)cc2c1` [Compound 3124, 3,3-difluoro-2-methylbutan-2-yl((2R,6S,7R,9S,13aS,14aR,16aS,Z)-2-((3-(dimethylamino)-6-methoxyisoquinolin-1-yl)oxy)-14a-(((1-(fluoromethyl)cyclopropyl)sulfonyl)carbamoyl)-7,9-dimethyl-5,16-dioxo-1,2,3,5,6,7,8,9,10,11,13a,14,14a,15,16,16a-hexadecahydrocyclopropa[e]pyrrolo[1,2-a][1,4]diazacyclopentadecin-6-yl)carbamate], the EC50 in test [1] and in test [2] was 4.82 to 103 nM each time.

In the case of `COc1ccc2c(O[C@@H]3C[C@H]4C(=O)N[C@]5(C(=O)NS(=O)(=O)C6(CF)CC6)C[C@H]5/C=C\CC[C@@H](C)C[C@@H](C)[C@H](NC(=O)OC(C)(C)C(F)(F)F)C(=O)N4C3)nc(N(C)C)cc2c1` [Compound 3127, 1,1,1-trifluoro-2-methylpropan-2-yl((2R,6S,7R,9R,13aS,14aR,16aS,Z)-2-((3-(dimethylamino)-6-methoxyisoquinolin-1-yl)oxy)-14a-(((1-(fluoromethyl)cyclopropyl)sulfonyl)carbamoyl)-7,9-dimethyl-5,16-dioxo-1,2,3,5,6,7,8,9,10,11,13a,14,14a,15,16,16a-hexadecahydrocyclopropa[e]pyrrolo[1,2-a][1,4]diazacyclopentadecin-6-yl)carbamate], the EC50 is 4.82 to 103 nM in test [1] and below 5.46 nM in test [2].

For `COc1ccc2c(O[C@@H]3C[C@H]4C(=O)N[C@]5(C(=O)NS(=O)(=O)C6(CF)CC6)C[C@H]5/C=C\CC[C@@H](C)C[C@@H](C)[C@H](NC(=O)O[C@H](C)C(F)(F)F)C(=O)N4C3)nc(N(C)C)cc2c1` [Compound 3128, (R)-1,1,1-trifluoropropan-2-yl((2R,6S,7R,9R,13aS,14aR,16aS,Z)-2-((3-(dimethylamino)-6-methoxyisoquinolin-1-yl)oxy)-14a-(((1-(fluoromethyl)cyclopropyl)sulfonyl)carbamoyl)-7,9-dimethyl-5,16-dioxo-1,2,3,5,6,7,8,9,10,11,13a,14,14a,15,16,16a-hexadecahydrocyclopropa[e]pyrrolo[1,2-a][1,4]diazacyclopentadecin-6-yl)carbamate], the EC50 in test [1] is 4.82 to 103 nM; in test [2], below 5.46 nM.

With `COc1ccc2c(O[C@@H]3C[C@H]4C(=O)N[C@]5(C(=O)NS(=O)(=O)C6CC6)C[C@H]5/C=C\CC[C@@H](C)C[C@@H](C)[C@H](NC(=O)OC(C)(C)C(F)(F)F)C(=O)N4C3)nc(N(C)C)cc2c1` [Compound 3130, 1,1,1-trifluoro-2-methylpropan-2-yl((2R,6S,7R,9R,13aS,14aR,16aS,Z)-14a-((cyclopropylsulfonyl)carbamoyl)-2-((3-(dimethylamino)-6-methoxyisoquinolin-1-yl)oxy)-7,9-dimethyl-5,16-dioxo-1,2,3,5,6,7,8,9,10,11,13a,14,14a,15,16,16a-hexadecahydrocyclopropa[e]pyrrolo[1,2-a][1,4]diazacyclopentadecin-6-yl)carbamate], the EC50 in test [1] and in test [2] was below 5.46 nM each time.

As for `COc1ccc2c(O[C@@H]3C[C@H]4C(=O)N[C@]5(C(=O)NS(=O)(=O)C6CC6)C[C@H]5/C=C\CC[C@@H](C)C[C@@H](C)[C@H](NC(=O)OC(C)(C)C(C)(F)F)C(=O)N4C3)nc(N(C)C)cc2c1` [Compound 3132, 3,3-difluoro-2-methylbutan-2-yl((2R,6S,7R,9R,13aS,14aR,16aS,Z)-14a-((cyclopropylsulfonyl)carbamoyl)-2-((3-(dimethylamino)-6-methoxyisoquinolin-1-yl)oxy)-7,9-dimethyl-5,16-dioxo-1,2,3,5,6,7,8,9,10,11,13a,14,14a,15,16,16a-hexadecahydrocyclopropa[e]pyrrolo[1,2-a][1,4]diazacyclopentadecin-6-yl)carbamate], the EC50 in test [1] and in test [2] was below 5.46 nM throughout.

For `COc1ccc2c(O[C@@H]3C[C@H]4C(=O)N[C@]5(C(=O)NS(=O)(=O)C6CC6)C[C@H]5/C=C\CC[C@@H](C)C[C@@H](C)[C@H](NC(=O)O[C@H](C)C(F)(F)F)C(=O)N4C3)nc(N(C)C)cc2c1` [Compound 3134, (R)-1,1,1-trifluoropropan-2-yl ((2R,6S,7R,9R,13aS,14aR,16aS,Z)-14a-((cyclopropylsulfonyl)carbamoyl)-2-((3-(dimethylamino)-6-methoxyisoquinolin-1-yl)oxy)-7,9-dimethyl-5,16-dioxo-1,2,3,5,6,7,8,9,10,11,13a,14,14a,15,16,16a-hexadecahydrocyclopropa[e]pyrrolo[1,2-a][1,4]diazacyclopentadecin-6-yl)carbamate], the EC50 in test [1] and in test [2] was below 5.46 nM throughout.

On to `COc1cnc(O[C@@H]2C[C@H]3C(=O)N[C@]4(C(=O)NS(=O)(=O)C5(C)CC5)C[C@H]4/C=C\CC[C@H](C)C[C@@H](C)[C@H](NC(=O)OC(C)(C)C)C(=O)N3C2)c2ccc(N(C)C)cc12` [Compound 3135, tert-butyl ((2R,6S,7R,9S,13aS,14aR,16aS,Z)-2-((6-(dimethylamino)-4-methoxyisoquinolin-1-yl)oxy)-7,9-dimethyl-14a-(((1-methylcyclopropyl)sulfonyl)carbamoyl)-5,16-dioxo-1,2,3,5,6,7,8,9,10,11,13a,14,14a,15,16,16a-hexadecahydrocyclopropa[e]pyrrolo[1,2-a][1,4]diazacyclopentadecin-6-yl)carbamate], for which the concentration giving a half-maximal response (EC50) in test [1] and in test [2] was below 5.46 nM throughout.

As to `COc1cnc(O[C@@H]2C[C@H]3C(=O)N[C@]4(C(=O)NS(=O)(=O)C5(C)CC5)C[C@H]4/C=C\CC[C@@H](C)C[C@@H](C)[C@H](NC(=O)OC(C)(C)C)C(=O)N3C2)c2ccc(N(C)C)cc12` [Compound 3136, tert-butyl ((2R,6S,7R,9R,13aS,14aR,16aS,Z)-2-((6-(dimethylamino)-4-methoxyisoquinolin-1-yl)oxy)-7,9-dimethyl-14a-(((1-methylcyclopropyl)sulfonyl)carbamoyl)-5,16-dioxo-1,2,3,5,6,7,8,9,10,11,13a,14,14a,15,16,16a-hexadecahydrocyclopropa[e]pyrrolo[1,2-a][1,4]diazacyclopentadecin-6-yl)carbamate], the half-maximal effective concentration (EC50) in test [1] and in test [2] was below 5.46 nM each time.

As to `COc1cnc(O[C@@H]2C[C@H]3C(=O)N[C@]4(C(=O)NS(=O)(=O)C5(C)CC5)C[C@H]4/C=C\CC[C@H](C)C[C@@H](C)[C@H](NC(=O)OC(C)(C)C(F)(F)F)C(=O)N3C2)c2ccc(N(C)C)cc12` [Compound 3137, 1,1,1-trifluoro-2-methylpropan-2-yl((2R,6S,7R,9S,13aS,14aR,16aS,Z)-2-((6-(dimethylamino)-4-methoxyisoquinolin-1-yl)oxy)-7,9-dimethyl-14a-(((1-methylcyclopropyl)sulfonyl)carbamoyl)-5,16-dioxo-1,2,3,5,6,7,8,9,10,11,13a,14,14a,15,16,16a-hexadecahydrocyclopropa[e]pyrrolo[1,2-a][1,4]diazacyclopentadecin-6-yl)carbamate], the concentration for a half-maximal effect (EC50) in test [1] and in test [2] was below 5.46 nM in each case.

The record behind these values is patent publication US9499550B2 (BRISTOL-MYERS SQUIBB COMPANY, priority 2012, dated 2016).
